Assay results from PMC7933116 (Cell metabolism, 2020).

Molecular target: MCT1 (Homo sapiens, UniProt P53985)
Assay: BCECF fluorescence lactate transport assay in MCT1-expressing BT20 cells
Assay type: cell-based

MCT1, sequence (P53985 whole entry): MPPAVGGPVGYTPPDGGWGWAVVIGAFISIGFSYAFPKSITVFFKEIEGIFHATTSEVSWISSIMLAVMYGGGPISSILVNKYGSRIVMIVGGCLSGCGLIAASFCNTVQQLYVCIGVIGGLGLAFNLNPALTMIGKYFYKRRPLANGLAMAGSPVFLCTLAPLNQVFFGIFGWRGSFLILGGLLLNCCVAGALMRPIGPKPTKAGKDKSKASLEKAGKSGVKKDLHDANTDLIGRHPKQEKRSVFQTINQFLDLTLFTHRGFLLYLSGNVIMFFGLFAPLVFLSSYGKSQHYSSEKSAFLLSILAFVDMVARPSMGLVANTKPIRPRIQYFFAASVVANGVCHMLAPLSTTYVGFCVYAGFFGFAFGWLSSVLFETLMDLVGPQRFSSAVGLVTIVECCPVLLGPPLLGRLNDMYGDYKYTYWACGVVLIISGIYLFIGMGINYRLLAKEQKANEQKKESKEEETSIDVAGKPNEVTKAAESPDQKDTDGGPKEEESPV

## CC(C)(OCc1cc(-c2cccc(OC3CC3)c2)n(-c2ccccc2Cl)n1)C(=O)O [VB124, 2-[[1-(2-chlorophenyl)-5-(3-cyclopropoxyphenyl)-1H-pyrazol-3-yl]methoxy]-2-methylpropanoic acid]
  IC50: 24 µM
